Source: ChEMBL document CHEMBL5360655, “Design, Synthesis, and Biological Evaluation of Novel P2X7 Receptor Antagonists for the Treatment of Septic Acute Kidney Injury” (J Med Chem, 2023)
The source made the active and inactive calls. The rule behind the calls is not given here.

What was measured:
[1] = Intrinsic clearance in mouse liver microsomes; assay type: ADME, Microsome; conditions: read-out: CLH
[2] = Tmax in BALB/c mouse at 10 mg/kg, iv measured for 24 hrs by LC-MS/MS analysis; assay type: ADME, organism-based; conditions: in vivo
[3] = Half life in mouse liver microsomes; assay type: ADME, Microsome
[4] = Tmax in BALB/c mouse at 10 mg/kg, ip measured for 24 hrs by LC-MS/MS analysis; assay type: ADME, organism-based; conditions: in vivo
[5] = Cmax in BALB/c mouse at 10 mg/kg, iv measured for 24 hrs by LC-MS/MS analysis; assay type: ADME, organism-based; set-up: time 24 hrs, dose 10 mg/kg, route iv; conditions: in vivo
[6] = target: T1, P2X purinoceptor 7 (Mus musculus) (UniProt Q9Z1M0); experiment: Antagonist activity at mouse P2X7 receptor expressed in HEK293 cells assessed as inhibition of ATP-induced receptor pore formation at 200 nM by propidium iodide dye uptake based fluorescence analysis; assay type: cell-based; conditions: filed as antagonist
T1 sequence (whole entry): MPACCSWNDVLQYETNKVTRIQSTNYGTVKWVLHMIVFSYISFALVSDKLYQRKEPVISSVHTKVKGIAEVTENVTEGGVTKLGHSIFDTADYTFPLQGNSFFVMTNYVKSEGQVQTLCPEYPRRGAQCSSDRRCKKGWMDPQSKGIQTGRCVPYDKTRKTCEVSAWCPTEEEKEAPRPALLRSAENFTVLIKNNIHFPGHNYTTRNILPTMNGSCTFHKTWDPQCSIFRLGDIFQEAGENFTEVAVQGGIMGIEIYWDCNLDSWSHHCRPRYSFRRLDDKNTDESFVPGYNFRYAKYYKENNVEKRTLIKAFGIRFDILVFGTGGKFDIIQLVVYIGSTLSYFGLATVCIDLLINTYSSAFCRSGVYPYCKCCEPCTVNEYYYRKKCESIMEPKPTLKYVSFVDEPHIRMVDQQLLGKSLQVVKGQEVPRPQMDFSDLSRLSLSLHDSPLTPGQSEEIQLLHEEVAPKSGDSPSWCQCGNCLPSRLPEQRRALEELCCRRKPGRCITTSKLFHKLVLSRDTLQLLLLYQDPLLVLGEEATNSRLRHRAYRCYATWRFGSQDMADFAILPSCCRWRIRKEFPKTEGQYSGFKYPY

P2X purinoceptor 7 [7] = target: T2, P2X purinoceptor 7 (Homo sapiens, UniProt Q99572); experiment: Antagonist activity at P2X7 receptor in human THP-1 cells assessed as inhibition of ATP-induced IL-1beta secretion pretreated with LPS for 3 hrs followed by incubation with compound for 40 mins followed by treatment with ATP for 1 hr by ELISA; assay type: cell-based
T2 sequence (Q99572 whole entry): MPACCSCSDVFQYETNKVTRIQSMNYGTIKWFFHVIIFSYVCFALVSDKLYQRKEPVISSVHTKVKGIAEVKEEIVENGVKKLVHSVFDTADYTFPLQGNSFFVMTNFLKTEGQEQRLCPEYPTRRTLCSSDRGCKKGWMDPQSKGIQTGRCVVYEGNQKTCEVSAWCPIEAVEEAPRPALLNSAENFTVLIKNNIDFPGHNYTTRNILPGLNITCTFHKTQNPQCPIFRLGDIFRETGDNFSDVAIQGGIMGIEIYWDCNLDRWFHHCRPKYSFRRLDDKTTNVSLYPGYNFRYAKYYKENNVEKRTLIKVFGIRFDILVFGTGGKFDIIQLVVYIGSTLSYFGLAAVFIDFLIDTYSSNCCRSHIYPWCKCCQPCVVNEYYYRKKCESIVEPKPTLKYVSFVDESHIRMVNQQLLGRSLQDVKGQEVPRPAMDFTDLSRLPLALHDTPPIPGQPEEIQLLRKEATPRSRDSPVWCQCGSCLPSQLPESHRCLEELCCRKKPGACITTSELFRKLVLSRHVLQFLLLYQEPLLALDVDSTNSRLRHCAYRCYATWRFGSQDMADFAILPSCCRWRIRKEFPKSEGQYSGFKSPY

[8] = Cmax in BALB/c mouse at 10 mg/kg, po measured for 24 hrs by LC-MS/MS analysis; assay type: ADME, organism-based; set-up: time 24 hrs, dose 10 mg/kg, route po; conditions: in vivo
[9] = Clearance in BALB/c mouse at 10 mg/kg, ip measured for 24 hrs by LC-MS/MS analysis; assay type: ADME, organism-based; conditions: in vivo
[10] = Tmax in BALB/c mouse at 10 mg/kg, po measured for 24 hrs by LC-MS/MS analysis; assay type: ADME, organism-based; conditions: in vivo
[11] = target: T3, P2X purinoceptor 7 (Homo sapiens) (UniProt Q99572); experiment: Antagonist activity at human P2X7 receptor expressed in HEK293 cells assessed as inhibition of ATP-induced receptor pore formation at 1 uM by propidium iodide dye uptake based fluorescence analysis; assay type: cell-based; conditions: filed as antagonist
T3 sequence (whole entry): T2 sequence (Q99572 whole entry)

Mus musculus [12] = experiment: Reno-protective activity against LPS-induced acute kidney injury C57BL/6J mouse model assessed as decrease in serum […] level at 10 mg/kg, ip administered twice at 30 mins prior to LPS challenge and 8 hrs post-LPS challenge and measured at 16 hrs post-LPS challenge; assay type: functional, organism-based; conditions: time 16.5 hrs
[13] = Half life in BALB/c mouse at 10 mg/kg, ip measured for 24 hrs by LC-MS/MS analysis; assay type: ADME, organism-based; conditions: in vivo
[14] = Oral bioavailability in BALB/c mouse at 10 mg/kg measured for 24 hrs by LC-MS/MS analysis; assay type: ADME, organism-based; conditions: in vivo
[15] = Half life in BALB/c mouse at 10 mg/kg, iv measured for 24 hrs by LC-MS/MS analysis; assay type: ADME, organism-based; conditions: in vivo
HEK293 [16] = experiment: Cytotoxicity against human HEK293 cells transfected with mouse P2X7 receptor assessed as effect on cell viability at 1 to 4 uM incubated for 2 hrs by CCK8 assay; assay type: toxicity, cell-based; conditions: hek293, 2 h, dose 1-4 µM
[17] = target: T3, P2X purinoceptor 7 (Homo sapiens); experiment: Antagonist activity at human P2X7 receptor expressed in HEK293 cells assessed as inhibition of ATP-induced receptor pore formation at 200 nM by propidium iodide dye uptake based fluorescence analysis; assay type: cell-based
[18] = AUC(0 to t) in BALB/c mouse at 10 mg/kg, ip measured for 24 hrs by LC-MS/MS analysis; assay type: ADME, organism-based; set-up: dose 10 mg/kg, time 24 hrs, route ip; conditions: in vivo
[19] = Cmax in BALB/c mouse at 10 mg/kg, ip measured for 24 hrs by LC-MS/MS analysis; assay type: ADME, organism-based; set-up: dose 10 mg/kg, time 24 hrs, route ip; conditions: in vivo
[20] = Half life in BALB/c mouse at 10 mg/kg, po measured for 24 hrs by LC-MS/MS analysis; assay type: ADME, organism-based; conditions: in vivo
P2X purinoceptor 7 [21] = target: T4, P2X purinoceptor 7 (Mus musculus, UniProt Q9Z1M0); experiment: Antagonist activity at mouse P2X7 receptor expressed in HEK293 cells assessed as inhibition of ATP-induced receptor pore formation by propidium iodide dye uptake based fluorescence analysis; assay type: cell-based
T4 sequence (Q9Z1M0 whole entry): T1 sequence (whole entry)

THP-1 = experiment: Cytotoxicity against human THP-1 cells assessed as effect on cell viability at 1 to 4 uM incubated for 2 hrs by CCK8 assay; assay type: toxicity, cell-based; conditions: thp-1, 2 h, dose 1-4 µM
[22] = Clearance in BALB/c mouse at 10 mg/kg, po measured for 24 hrs by LC-MS/MS analysis; assay type: ADME, organism-based; conditions: in vivo
[23] = target: T1, P2X purinoceptor 7 (Mus musculus); experiment: Antagonist activity at mouse P2X7 receptor expressed in HEK293 cells assessed as inhibition of ATP-induced receptor pore formation at 1 uM by propidium iodide dye uptake based fluorescence analysis; assay type: cell-based; conditions: filed as antagonist
[24] = Half life in human liver microsomes; assay type: ADME, Microsome
[25] = AUC(0 to t) in BALB/c mouse at 10 mg/kg, po measured for 24 hrs by LC-MS/MS analysis; assay type: ADME, organism-based; set-up: time 24 hrs, dose 10 mg/kg, route po; conditions: in vivo
Mus musculus [26] = experiment: Reno-protective activity against LPS-induced acute kidney injury C57BL/6J mouse model assessed as decrease in BUN level at 10 mg/kg, ip administered twice at 30 mins prior to LPS challenge and 8 hrs post-LPS challenge and measured at 16 hrs post-LPS challenge; assay type: functional, organism-based; conditions: time 16.5 hrs
[27] = Intrinsic clearance in human liver microsomes; assay type: ADME, Microsome; conditions: read-out: CLH
[28] = Clearance in BALB/c mouse at 10 mg/kg, iv measured for 24 hrs by LC-MS/MS analysis; assay type: ADME, organism-based; conditions: in vivo
HEK293 [29] = experiment: Cytotoxicity against human HEK293 cells transfected with human P2X7 receptor assessed as effect on cell viability at 1 to 4 uM incubated for 2 hrs by CCK8 assay; assay type: toxicity, cell-based; conditions: hek293, 2 h, dose 1-4 µM
[30] = AUC(0 to t) in BALB/c mouse at 10 mg/kg, iv measured for 24 hrs by LC-MS/MS analysis; assay type: ADME, organism-based; set-up: time 24 hrs, dose 10 mg/kg, route iv; conditions: in vivo
P2X purinoceptor 7 [31] = target: T2, P2X purinoceptor 7; experiment: Antagonist activity at human P2X7 receptor expressed in HEK293 cells assessed as inhibition of ATP-induced receptor pore formation by propidium iodide dye uptake based fluorescence analysis; assay type: cell-based
P2X purinoceptor 7 [32] = target: T2, P2X purinoceptor 7; experiment: Antagonist activity at human P2X7 receptor
P2X purinoceptor 7 [33] = target: T4, P2X purinoceptor 7; experiment: Antagonist activity at mouse P2X7 receptor

Row | Structure (SMILES) | CLint scaled [1] [mL/min/kg] | Tmax [2] [h] | half-life [3] [h] | Tmax [4] [h] | Cmax [5] [ng/mL] | inhibition [6] [%] | IC50 (P2X purinoceptor 7 [7]) [nM] | Cmax [8] [ng/mL] | CL/F [9] [mL/min/kg] | Tmax [10] [h] | inhibition [11] [%] | Activity (Mus musculus [12]) | half-life [13] [h] | bioavailability [14] [%] | half-life [15] [h] | Activity (HEK293 [16]) | AUC(0-t) at 24 h [18] [ng·h/mL] | Cmax [19] [ng/mL] | half-life [20] [h] | IC50 (P2X purinoceptor 7 [21]) [nM] | other results
1 | CS(=O)(=O)c1ccc(-c2nc(C(=O)NCc3cn(-c4cc(Cl)ccn4)nn3)cs2)cc1 | < 12 | 0.08 | > 2 | 0.38 | 3040 | 105 | 358 | 776 | 16.9 | 2 | 68 | Active | 3.94 | 86.4 | 1.96 | Non-Toxic | 9930 | 3650 | 2.29 | 36.2 | inhibition ([17]; filed as antagonist): 42.1%; Activity (THP-1): Non-Toxic; CL/F [22]: 40.8 mL/min/kg; inhibition [23]: 99.5%; half-life [24]: > 2 h; AUC(0-t) at 24 h [25]: 4390 ng·h/mL; Activity (Mus musculus [26]): Active; CLint scaled [27]: < 12 mL/min/kg; clearance [28]: 33.2 mL/min/kg; Activity (HEK293 [29]): Non-Toxic; AUC(0-t) at 24 h [30]: 5080 ng·h/mL; IC50 (P2X purinoceptor 7 [31]): 147 nM
2 | CS(=O)(=O)c1ccc(-c2ncc(C(=O)NCc3cn(-c4cc(Cl)ccn4)nn3)s2)cc1 | < 12 | 0.08 | > 2 | 4.67 | 25800 | 101 | 635 | 6500 | 13.5 | 2 | 53.6 | Active | 3.98 | 37.3 | 4.94 | Non-Toxic | 12000 | 1470 | 2.1 | 26.9 | inhibition [17]: 38.2%; Activity (THP-1): Non-Toxic; CL/F [22]: 5.83 mL/min/kg; inhibition [23]: 100%; half-life [24]: > 2 h; AUC(0-t) at 24 h [25]: 29100 ng·h/mL; Activity (Mus musculus [26]): Active; CLint scaled [27]: < 12 mL/min/kg; clearance [28]: 2 mL/min/kg; Activity (HEK293 [29]): Non-Toxic; AUC(0-t) at 24 h [30]: 77900 ng·h/mL; IC50 (P2X purinoceptor 7 [31]): 297 nM
3 | CC1=C(C(c2ccc(Cl)cc2)n2cc(COCc3ccco3)nn2)C(=O)c2ccccc2C1=O (stereo not given) |  |  |  |  |  |  |  |  |  |  |  |  |  |  |  |  |  |  |  |  | IC50 (P2X purinoceptor 7 [32]): 103 nM
4 | O=C1C=C(n2cc(CCCl)nn2)C(=O)c2c(O)cccc21 |  |  |  |  |  |  |  |  |  |  |  |  |  |  |  |  |  |  |  |  | IC50 (P2X purinoceptor 7 [32]): 1100 nM; IC50 (P2X purinoceptor 7 [33]): 1500 nM
5 | CS(=O)(=O)c1ccc(-c2ncc(C(=O)NCc3cn(-c4cc(Br)ccn4)nn3)s2)cc1 | < 12 | 1.39 | > 2 | 4 | 3410 | 114 | 289 | 1010 | 6.83 | 2 | 100 | Active | 8.17 | 17.5 | 7.87 | Non-Toxic | 24400 | 3660 | 2.66 | 12.2 | inhibition ([17]; filed as antagonist): 56.9%; Activity (THP-1): Non-Toxic; CL/F [22]: 26.3 mL/min/kg; inhibition [23]: 114%; half-life [24]: > 2 h; AUC(0-t) at 24 h [25]: 7140 ng·h/mL; Activity (Mus musculus [26]): Active; CLint scaled [27]: < 12 mL/min/kg; clearance [28]: 3.67 mL/min/kg; Activity (HEK293 [29]): Non-Toxic; AUC(0-t) at 24 h [30]: 40900 ng·h/mL; IC50 (P2X purinoceptor 7 [31]): 166 nM
6 | O=C(NCc1ccc(Cl)cc1Cl)C1CCC(=O)N1c1ccoc1 (stereo not given) |  |  |  |  |  |  |  |  |  |  |  |  |  |  |  |  |  |  |  |  | IC50 (P2X purinoceptor 7 [32]): 200 nM
